From ChEMBL document CHEMBL4354836, “Heterotrimeric G Proteins as Therapeutic Targets in Drug Discovery” (J Med Chem, 2020)
Bridge positions count the residues as written; N and C are the ends. Square brackets hold non-standard residues; d marks the D form. Peptide text beside a SMILES is read from it. Leu(3R-O(AcLeu(3R-OH))) = CC(=O)N[C@H](C(=O)O[C@H](C(C)C)[C@H](N)C(=O)O)[C@H](O)C(C)C; NMeT = CN[C@H](C(=O)O)[C@@H](C)O; dPhLac = O=C(O)[C@H](O)Cc1ccccc1; NMeA = CN[C@@H](C)C(=O)O; NMeDha = C=C(NC)C(=O)O

Assays:
GNAQ/GNA11 [1] = target: T1, GNAQ/GNA11 (Homo sapiens, UniProt P50148+P29992); assay: Inhibition of G-alphaq/11 in human platelet rich plasma assessed as inhibition of ADP-mediated calcium ion mobilization
T1 sequence (P50148 whole entry): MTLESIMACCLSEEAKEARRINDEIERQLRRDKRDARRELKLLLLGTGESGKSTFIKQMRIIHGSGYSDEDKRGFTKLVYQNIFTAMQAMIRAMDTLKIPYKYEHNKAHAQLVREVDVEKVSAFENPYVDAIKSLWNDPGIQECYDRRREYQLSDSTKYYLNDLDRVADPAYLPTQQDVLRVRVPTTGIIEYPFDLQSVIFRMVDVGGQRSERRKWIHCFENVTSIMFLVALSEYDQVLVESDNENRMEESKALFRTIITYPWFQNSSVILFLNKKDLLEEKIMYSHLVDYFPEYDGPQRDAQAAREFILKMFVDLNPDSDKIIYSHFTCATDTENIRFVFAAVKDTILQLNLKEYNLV
T1 sequence (P29992 whole entry): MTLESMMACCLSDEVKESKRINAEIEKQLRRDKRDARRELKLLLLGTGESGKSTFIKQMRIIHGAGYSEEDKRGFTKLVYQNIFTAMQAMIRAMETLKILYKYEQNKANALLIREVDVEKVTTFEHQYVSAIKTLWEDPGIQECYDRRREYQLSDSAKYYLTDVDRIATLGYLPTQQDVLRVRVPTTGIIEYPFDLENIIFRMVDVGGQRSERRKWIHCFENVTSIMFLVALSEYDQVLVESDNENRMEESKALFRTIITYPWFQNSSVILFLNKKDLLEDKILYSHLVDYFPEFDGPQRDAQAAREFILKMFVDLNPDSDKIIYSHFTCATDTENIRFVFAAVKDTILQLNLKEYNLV

GNAQ/GNA11 [2] = target: T1, GNAQ/GNA11; assay: Inhibition of G-alphaq/11 in human platelet rich plasma assessed as inhibition of ADP-mediated platelet aggregation
[3] = target: Guanine nucleotide-binding protein G(I)/G(S)/G(T) subunit beta-1/gamma-2 (Homo sapiens, UniProt P59768+P62873); assay: Inhibition of G-protein beta1gamma2 (unknown origin) by flow cytometry; assay type: protein-complex assay
[4] = Inhibition of recombinant G-alpha subunit (unknown origin) assessed as inhibition of GDP release; parameters: species or system Homo sapiens

Sequence of Guanine nucleotide-binding protein G(I)/G(S)/G(T) subunit beta-1/gamma-2 (P59768 2-71 limits assumed): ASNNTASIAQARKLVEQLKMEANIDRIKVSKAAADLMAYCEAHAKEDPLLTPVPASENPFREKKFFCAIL
Sequence of Guanine nucleotide-binding protein G(I)/G(S)/G(T) subunit beta-1/gamma-2 (P62873 2-340 limits assumed): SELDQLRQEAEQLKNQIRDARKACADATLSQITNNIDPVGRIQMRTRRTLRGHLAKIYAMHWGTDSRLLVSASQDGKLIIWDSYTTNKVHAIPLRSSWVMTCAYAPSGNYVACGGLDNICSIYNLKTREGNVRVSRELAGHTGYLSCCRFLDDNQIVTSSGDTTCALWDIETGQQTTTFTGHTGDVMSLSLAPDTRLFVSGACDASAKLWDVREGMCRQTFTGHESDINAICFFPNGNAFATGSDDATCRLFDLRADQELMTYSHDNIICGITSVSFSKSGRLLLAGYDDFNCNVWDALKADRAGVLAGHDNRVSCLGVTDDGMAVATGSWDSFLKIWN

Row | IC50 [3] | SMILES | other results
1 | – | C=C1C(=O)N[C@@H](C)C(=O)N(C)[C@@H](C)C(=O)N[C@@H]([C@H](OC(=O)[C@@H](NC(C)=O)[C@H](O)C(C)C)C(C)C)C(=O)N(C)[C@@H]([C@@H](C)OC)C(=O)O[C@H](C)[C@H](NC(C)=O)C(=O)O[C@H](Cc2ccccc2)C(=O)N1C (Ac-T[dPhLac][NMeDha]A[NMeA][Leu(3R-O(AcLeu(3R-OH)))][NMeT](Me); ester 1-C) | IC50 (GNAQ/GNA11 [1]): 100 to 1000 nM; IC50 (GNAQ/GNA11 [2]): 100 to 1000 nM
2 | > 300000 nM | O=C(O)C1CCCCC1c1c2ccc(=O)cc-2oc2cc(O)ccc12 (configuration not stated) | –
3 | 200 nM | O=C(O)C1CCCCC1c1c2ccc(=O)c(O)c-2oc2c(O)c(O)ccc12 (configuration not stated) | –
4 | – | Cc1ccc(C(=O)Nc2ccc(S(=O)(=O)O)c3cc(S(=O)(=O)O)cc(S(=O)(=O)O)c23)cc1NC(=O)c1cccc(NC(=O)Nc2cccc(C(=O)Nc3cc(C(=O)Nc4ccc(S(=O)(=O)O)c5cc(S(=O)(=O)O)cc(S(=O)(=O)O)c45)ccc3C)c2)c1 [SURAMIN] | IC50 [4]: 240 nM
5 | 250 nM | O=C(O)C1CC23C(Cl)C(Cl)=C(Cl)C(Cl)C2(CC1c1c2ccc(=O)c(O)c-2oc2c(O)c(O)ccc12)C3(Cl)Cl (configuration not stated) | –
6 | 200 nM | O=C1OC2(c3ccccc31)c1ccc(O)c(O)c1Oc1c2ccc(O)c1O | –
